According to article PMC7618403 (Science (New York, N.Y.), 2026):
One block for each molecule: values may come before it.

Assays:
[1] = molecular target: T1, XRCC3 complex (XRCC3-RAD51C-RAD51D-XRCC2), XRCC3 site (Homo sapiens, UniProt O43542, E143A); test: ATP hydrolysis assay; type: biochemical; conditions: catalytic glutamate mutant
T1 construct: heterotetramer co-expressed in baculovirus-infected insect cells, purified; DNA repair protein XRCC2

[2] = molecular target: T2, XRCC3 complex (XRCC3-RAD51C-RAD51D-XRCC2), RAD51D site (Homo sapiens, UniProt O75771); test: cryo-EM structure, […] A; type: binding; conditions: RAD51D nucleotide site; ATP with Mg2+ and Ca2+; capped RAD51-ssDNA filament
T2 construct: heterotetramer co-expressed in baculovirus-infected insect cells, purified; caps a RAD51-ssDNA filament; with DNA repair protein XRCC3; DNA repair protein XRCC2

[3] = molecular target: T3, RAD51 (filament on ssDNA capped by XRCC3 complex) (Homo sapiens, UniProt Q06609); test: cryo-EM structure, […] A; type: binding; conditions: RAD51 active sites, ATP with Mg2+ and Ca2+
T3 construct: with DNA repair protein XRCC3; DNA repair protein XRCC2

[4] = molecular target: T4, XRCC3 complex (XRCC3-RAD51C-RAD51D-XRCC2), XRCC3 site (Homo sapiens, UniProt O43542); test: cryo-EM structure, […] A; type: binding; conditions: XRCC3 active site; ATP with Mg2+ and Ca2+; capped RAD51-ssDNA filament
T4 construct: heterotetramer co-expressed in baculovirus-infected insect cells, purified; in the structure it caps a RAD51-ssDNA filament; DNA repair protein XRCC2

[5] = molecular target: T4, XRCC3 complex (XRCC3-RAD51C-RAD51D-XRCC2), XRCC3 site; test: ATP hydrolysis assay; type: biochemical; conditions: catalytic glutamate mutant
Target sequence in this assay (O43502 whole entry E161A partner, one chain of several): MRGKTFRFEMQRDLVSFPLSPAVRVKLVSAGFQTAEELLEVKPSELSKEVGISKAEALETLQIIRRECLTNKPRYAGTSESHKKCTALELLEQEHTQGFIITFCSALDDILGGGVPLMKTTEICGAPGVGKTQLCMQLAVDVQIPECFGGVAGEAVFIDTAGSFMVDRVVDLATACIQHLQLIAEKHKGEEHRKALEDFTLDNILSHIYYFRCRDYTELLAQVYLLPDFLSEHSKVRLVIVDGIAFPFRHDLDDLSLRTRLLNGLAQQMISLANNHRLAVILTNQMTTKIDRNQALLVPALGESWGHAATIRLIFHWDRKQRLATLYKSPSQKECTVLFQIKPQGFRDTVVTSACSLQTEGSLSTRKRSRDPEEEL

[6] = molecular target: T5, XRCC3 complex (XRCC3-RAD51C-RAD51D-XRCC2), XRCC2 site (Homo sapiens, UniProt O43543); test: cryo-EM structure, […] A; type: binding; conditions: XRCC2 nucleotide site; ATP with Mg2+ and Ca2+; capped RAD51-ssDNA filament
T5 construct: heterotetramer co-expressed in baculovirus-infected insect cells, purified; caps a RAD51-ssDNA filament; with DNA repair protein XRCC3

[7] = molecular target: T6, RAD51B complex (RAD51B-RAD51C-RAD51D-XRCC2; BCDX2) (Homo sapiens, UniProt O15315+O43502, O43502:E161A); test: ATP hydrolysis assay; type: biochemical; conditions: catalytic glutamate mutant
T6 construct: heterotetramer; DNA repair protein XRCC2
T6 sequence (O15315 whole entry, one chain of several): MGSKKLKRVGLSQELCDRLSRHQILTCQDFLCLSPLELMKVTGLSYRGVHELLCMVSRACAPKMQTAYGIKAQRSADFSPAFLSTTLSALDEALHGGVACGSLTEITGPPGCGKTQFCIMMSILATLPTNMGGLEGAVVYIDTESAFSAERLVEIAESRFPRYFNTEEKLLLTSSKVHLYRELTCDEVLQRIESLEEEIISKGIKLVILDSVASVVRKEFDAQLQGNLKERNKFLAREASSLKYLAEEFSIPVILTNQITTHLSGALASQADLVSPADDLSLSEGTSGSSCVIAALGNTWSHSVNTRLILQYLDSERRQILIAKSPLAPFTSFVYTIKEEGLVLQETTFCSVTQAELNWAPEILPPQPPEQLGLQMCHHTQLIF
T6 sequence (O43502 whole entry E161A, one chain of several): as the sequence (O43502 whole entry E161A partner, one chain of several) above

[8] = molecular target: T7, (Homo sapiens, UniProt O15315+O43502); test: ATP hydrolysis assay; type: biochemical; conditions: coupled RAD51B and RAD51C ATPase sites
T7 construct: gene RAD51B; heterotetramer; DNA repair protein XRCC2
T7 sequence (O15315 whole entry, one chain of several): as the sequence (O15315 whole entry, one chain of several) above

RAD51 [9] = molecular target: T8, RAD51 (human, UniProt Q06609 1-339); test: MST
T8 chain: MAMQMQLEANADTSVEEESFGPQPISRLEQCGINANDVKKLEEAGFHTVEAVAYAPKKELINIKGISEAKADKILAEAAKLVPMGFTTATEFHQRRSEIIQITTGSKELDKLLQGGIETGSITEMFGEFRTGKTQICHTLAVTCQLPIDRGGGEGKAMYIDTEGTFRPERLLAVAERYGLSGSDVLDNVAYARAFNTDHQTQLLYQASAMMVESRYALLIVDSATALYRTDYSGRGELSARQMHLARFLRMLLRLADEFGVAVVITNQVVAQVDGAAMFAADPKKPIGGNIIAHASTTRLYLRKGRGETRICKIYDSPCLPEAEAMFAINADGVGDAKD

RAD51 [10] = molecular target: T8, RAD51; test: MST; 1 mM ATP and CaCl2

T1 sequence (O43542 whole entry E143A, one chain of several): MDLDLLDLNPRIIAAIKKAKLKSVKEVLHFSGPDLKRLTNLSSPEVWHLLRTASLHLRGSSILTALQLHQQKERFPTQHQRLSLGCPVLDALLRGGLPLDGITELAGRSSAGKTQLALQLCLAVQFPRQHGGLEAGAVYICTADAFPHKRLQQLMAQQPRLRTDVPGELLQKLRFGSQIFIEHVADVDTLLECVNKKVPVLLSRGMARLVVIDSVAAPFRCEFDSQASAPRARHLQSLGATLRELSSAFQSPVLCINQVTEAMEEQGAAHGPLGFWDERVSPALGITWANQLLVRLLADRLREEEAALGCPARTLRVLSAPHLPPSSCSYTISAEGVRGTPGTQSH

cryo-EM structure, 2.7 A [2]: RAD51D and XRCC2 were both bound to ATP | cryo-EM structure, 2.7 A [6]: RAD51D and XRCC2 were both bound to ATP
Molecule: Nc1ncnc2c1ncn2[C@@H]1O[C@H](COP(=O)(O)OP(=O)(O)OP(=O)(O)O)[C@@H](O)[C@H]1O [ATP]
ATP hydrolysis assay [1]: residual activity was eliminated by an XRCC3 catalytic glutamate mutant (XRCC3^E143A) | cryo-EM structure, 2.7 A [3]: XRCC3 and RAD51 protomers were also bound to ATP | cryo-EM structure, 2.7 A [4]: XRCC3 and RAD51 protomers were also bound to ATP | ATP hydrolysis assay [5]: mutation of the catalytic glutamate in RAD51C (RAD51C^E161A) had no effect on ATPase activity | ATP hydrolysis assay [7]: the same mutation abolishing the ATPase activity in the RAD51B complex | ATP hydrolysis assay [8]: XRCC3 complex displayed minimal ATPase activity relative to the RAD51B complex

Kd (RAD51 [9]): 57 nM
B1: XRCC3-RAD51C-RAD51D-XRCC2 complex (complex)
chain 1: MDLDLLDLNPRIIAAIKKAKLKSVKEVLHFSGPDLKRLTNLSSPEVWHLLRTASLHLRGSSILTALQLHQQKERFPTQHQRLSLGCPVLDALLRGGLPLDGITELAGRSSAGKTQLALQLCLAVQFPRQHGGLEAGAVYICTEDAFPHKRLQQLMAQQPRLRTDVPGELLQKLRFGSQIFIEHVADVDTLLECVNKKVPVLLSRGMARLVVIDSVAAPFRCEFDSQASAPRARHLQSLGATLRELSSAFQSPVLCINQVTEAMEEQGAAHGPLGFWDERVSPALGITWANQLLVRLLADRLREEEAALGCPARTLRVLSAPHLPPSSCSYTISAEGVRGTPGTQSH
chain 2: MRGKTFRFEMQRDLVSFPLSPAVRVKLVSAGFQTAEELLEVKPSELSKEVGISKAEALETLQIIRRECLTNKPRYAGTSESHKKCTALELLEQEHTQGFIITFCSALDDILGGGVPLMKTTEICGAPGVGKTQLCMQLAVDVQIPECFGGVAGEAVFIDTEGSFMVDRVVDLATACIQHLQLIAEKHKGEEHRKALEDFTLDNILSHIYYFRCRDYTELLAQVYLLPDFLSEHSKVRLVIVDGIAFPFRHDLDDLSLRTRLLNGLAQQMISLANNHRLAVILTNQMTTKIDRNQALLVPALGESWGHAATIRLIFHWDRKQRLATLYKSPSQKECTVLFQIKPQGFRDTVVTSACSLQTEGSLSTRKRSRDPEEEL
chain 3: MGVLRVGLCPGLTEEMIQLLRSHRIKTVVDLVSADLEEVAQKCGLSYKALVALRRVLLAQFSAFPVNGADLYEELKTSTAILSTGIGSLDKLLDAGLYTGEVTEIVGGPGSGKTQVCLCMAANVAHGLQQNVLYVDSNGGLTASRLLQLLQAKTQDEEEQAEALRRIQVVHAFDIFQMLDVLQELRGTVAQQVTGSSGTVKVVVVDSVTAVVSPLLGGQQREGLALMMQLARELKTLARDLGMAVVVTNHITRDRDSGRLKPALGRSWSFVPSTRILLDTIEGAGASGGRRMACLAKSSRQPTGFQEMVDIGTWGTSEQSATLQGDQT
chain 4: MCSAFHRAESGTELLARLEGRSSLKEIEPNLFADEDSPVHGDILEFHGPEGTGKTEMLYHLTARCILPKSEGGLEVEVLFIDTDYHFDMLRLVTILEHRLSQSSEEIIKYCLGRFFLVYCSSSTHLLLTLYSLESMFCSHPSLCLLILDSLSAFYWIDRVNGGESVNLQESTLRKCSQCLEKLVNDYRLVLFATTQTIMQKASSSSEEPSHASRRLCDVDIDYRPYLCKAWQQLVKHRMFFSKQDDSQSSNQFSLVSRCLKSNSLKKHFFIIGESGVEFC

Kd (RAD51 [10]): 93 nM
B2: RAD51C-XRCC3 heterodimer (complex)
chain 1: B1 chain 2
chain 2: B1 chain 1
